Measured values from paper PMC2757673, “Protein Misfolding as an Underlying Molecular Defect in Mucopolysaccharidosis III Type C” (PLoS ONE, 2009).
Structures can show the parent of a compound that is named as a salt.

Legend:
[1] = molecular target: T1, HGSNAT (heparan sulfate acetyl-CoA: α-glucosaminide N-acetyltransferase), HGSNAT-TAP (Homo sapiens, UniProt Q68CP4); assay: fluorogenic N-acetyltransferase assay, Lineweaver-Burk plot, partially purified (streptavidin resin) enzyme; format: biochemical; details: acetyl-CoA co-substrate, 4MU-βGlcN 0.05-2.0 mM, McIlvain buffer pH 5.7, 37°C, 18 h
T1 construct: transient expression in COS-7 cells; homogenate or streptavidin-resin partially purified; ~77 kDa
T1 sequence (Q68CP4 1-663): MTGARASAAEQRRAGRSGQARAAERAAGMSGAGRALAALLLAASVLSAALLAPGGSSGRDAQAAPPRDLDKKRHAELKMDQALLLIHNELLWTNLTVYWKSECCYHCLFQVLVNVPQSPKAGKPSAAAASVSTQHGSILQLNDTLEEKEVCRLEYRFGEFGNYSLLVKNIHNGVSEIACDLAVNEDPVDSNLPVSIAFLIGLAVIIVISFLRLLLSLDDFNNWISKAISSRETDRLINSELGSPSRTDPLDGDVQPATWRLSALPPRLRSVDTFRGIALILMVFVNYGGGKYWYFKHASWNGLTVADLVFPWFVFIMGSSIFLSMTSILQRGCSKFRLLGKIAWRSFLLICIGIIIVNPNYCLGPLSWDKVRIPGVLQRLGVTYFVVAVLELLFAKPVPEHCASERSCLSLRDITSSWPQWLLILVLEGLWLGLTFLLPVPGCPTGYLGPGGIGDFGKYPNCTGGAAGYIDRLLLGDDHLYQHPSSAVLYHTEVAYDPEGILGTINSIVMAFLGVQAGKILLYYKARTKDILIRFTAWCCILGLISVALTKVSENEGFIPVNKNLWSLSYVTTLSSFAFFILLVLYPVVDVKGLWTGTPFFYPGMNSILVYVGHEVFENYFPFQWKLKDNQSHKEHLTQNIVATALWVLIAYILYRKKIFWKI

[2] = molecular target: T1, HGSNAT (heparan sulfate acetyl-CoA: α-glucosaminide N-acetyltransferase), HGSNAT-TAP; assay: fluorogenic N-acetyltransferase assay, Dixon plot, homogenate of transfected COS-7 cells; format: biochemical; details: competitive; 4MU-βGlcN 0.0375-1.5 mM, 2 mM acetyl-CoA, McIlvain buffer pH 5.7, 37°C, 3 h

Cc1cc(=O)oc2cc(O[C@@H]3O[C@H](CO)[C@@H](O)[C@H](O)[C@H]3N)ccc12 [4MU-βGlcN, 4-methylumbelliferyl β-D-glucosaminide]
KM [1]: Lineweaver-Burk plot of substrate dependance for partially purified HGSNAT wild-type and P237Q and V481L mutants

N[C@H]1C(O)O[C@H](CO)[C@@H](O)[C@@H]1O (stereo partly drawn) [D-(+)-glucosamine hydrochloride]
Ki [2]: 280 µM
